# Data as given in ChEMBL document CHEMBL1129139, “Synthesis and activity of staurosporine analogs with a lactone functionality” (Bioorg Med Chem Lett, 1996).
# Assays:
# [1] = species: Cavia porcellus; assay: Inhibitory effect of compound was measured for platelet aggregation in guinea pig blood; type: functional, organism-based
# [2] = species: Cavia porcellus; assay: Inhibitory effect of compound was measured for arterial contraction in guinea pig; type: functional, organism-based
IC50 [1],IC50 [2],SMILES
5.4 µM,> 10 µM,CO[C@@H]1[C@H](N(C)C)CC2O[C@]1(C)n1c3ccccc3c3c4c(c5c6ccccc6n2c5c31)C(=O)OC4
6.8 µM,30 µM,CN[C@@H]1CC2O[C@@](C)([C@@H]1OC)n1c3ccccc3c3c(CO)c(CO)c4c5ccccc5n2c4c31
6.8 µM,> 30 µM,CN[C@@H]1CC2O[C@@](C)([C@@H]1OC)n1c3ccccc3c3c4c(c5c6ccccc6n2c5c31)C(=O)OC4
0.4 µM,3 µM,CN[C@@H]1CC2O[C@@](C)([C@@H]1OC)n1c3ccc(O)cc3c3c4c(c5c6cc(O)ccc6n2c5c31)C(=O)OC4
